From patent US9340590B2 (priority 2011, dated 2016)
pIC50: −log10 of the molar value. Positions of bridges follow the written chain, without caps; N, C: chain ends. Non-standard residues stand in square brackets, D forms with d. Residues, ends and D or L forms follow the SMILES beside them. Aib = CC(C)(N)C(=O)O; βAla = NCCC(=O)O

What was measured:
Assay in all cases: cell-based
hNav1.3 = hNav1.3 (Homo sapiens, UniProt Q9NY46); details: IonWorks Quattro, use-dependent block, hNav1.3; read-out: IWQ Use Nav1.3
hNav1.7 = hNav1.7 (Homo sapiens, UniProt Q15858); type: cell-based; details: IonWorks Quattro, use-dependent block, hNav1.7; read-out: IWQ Use Nav1.7
hNav1.5 = hNav1.5 (Homo sapiens, UniProt Q14524); details: IonWorks Quattro, use-dependent block, hNav1.5; read-out: IWQ Use Nav1.5

Sequence of hNav1.3 (Q9NY46 whole entry, looked up): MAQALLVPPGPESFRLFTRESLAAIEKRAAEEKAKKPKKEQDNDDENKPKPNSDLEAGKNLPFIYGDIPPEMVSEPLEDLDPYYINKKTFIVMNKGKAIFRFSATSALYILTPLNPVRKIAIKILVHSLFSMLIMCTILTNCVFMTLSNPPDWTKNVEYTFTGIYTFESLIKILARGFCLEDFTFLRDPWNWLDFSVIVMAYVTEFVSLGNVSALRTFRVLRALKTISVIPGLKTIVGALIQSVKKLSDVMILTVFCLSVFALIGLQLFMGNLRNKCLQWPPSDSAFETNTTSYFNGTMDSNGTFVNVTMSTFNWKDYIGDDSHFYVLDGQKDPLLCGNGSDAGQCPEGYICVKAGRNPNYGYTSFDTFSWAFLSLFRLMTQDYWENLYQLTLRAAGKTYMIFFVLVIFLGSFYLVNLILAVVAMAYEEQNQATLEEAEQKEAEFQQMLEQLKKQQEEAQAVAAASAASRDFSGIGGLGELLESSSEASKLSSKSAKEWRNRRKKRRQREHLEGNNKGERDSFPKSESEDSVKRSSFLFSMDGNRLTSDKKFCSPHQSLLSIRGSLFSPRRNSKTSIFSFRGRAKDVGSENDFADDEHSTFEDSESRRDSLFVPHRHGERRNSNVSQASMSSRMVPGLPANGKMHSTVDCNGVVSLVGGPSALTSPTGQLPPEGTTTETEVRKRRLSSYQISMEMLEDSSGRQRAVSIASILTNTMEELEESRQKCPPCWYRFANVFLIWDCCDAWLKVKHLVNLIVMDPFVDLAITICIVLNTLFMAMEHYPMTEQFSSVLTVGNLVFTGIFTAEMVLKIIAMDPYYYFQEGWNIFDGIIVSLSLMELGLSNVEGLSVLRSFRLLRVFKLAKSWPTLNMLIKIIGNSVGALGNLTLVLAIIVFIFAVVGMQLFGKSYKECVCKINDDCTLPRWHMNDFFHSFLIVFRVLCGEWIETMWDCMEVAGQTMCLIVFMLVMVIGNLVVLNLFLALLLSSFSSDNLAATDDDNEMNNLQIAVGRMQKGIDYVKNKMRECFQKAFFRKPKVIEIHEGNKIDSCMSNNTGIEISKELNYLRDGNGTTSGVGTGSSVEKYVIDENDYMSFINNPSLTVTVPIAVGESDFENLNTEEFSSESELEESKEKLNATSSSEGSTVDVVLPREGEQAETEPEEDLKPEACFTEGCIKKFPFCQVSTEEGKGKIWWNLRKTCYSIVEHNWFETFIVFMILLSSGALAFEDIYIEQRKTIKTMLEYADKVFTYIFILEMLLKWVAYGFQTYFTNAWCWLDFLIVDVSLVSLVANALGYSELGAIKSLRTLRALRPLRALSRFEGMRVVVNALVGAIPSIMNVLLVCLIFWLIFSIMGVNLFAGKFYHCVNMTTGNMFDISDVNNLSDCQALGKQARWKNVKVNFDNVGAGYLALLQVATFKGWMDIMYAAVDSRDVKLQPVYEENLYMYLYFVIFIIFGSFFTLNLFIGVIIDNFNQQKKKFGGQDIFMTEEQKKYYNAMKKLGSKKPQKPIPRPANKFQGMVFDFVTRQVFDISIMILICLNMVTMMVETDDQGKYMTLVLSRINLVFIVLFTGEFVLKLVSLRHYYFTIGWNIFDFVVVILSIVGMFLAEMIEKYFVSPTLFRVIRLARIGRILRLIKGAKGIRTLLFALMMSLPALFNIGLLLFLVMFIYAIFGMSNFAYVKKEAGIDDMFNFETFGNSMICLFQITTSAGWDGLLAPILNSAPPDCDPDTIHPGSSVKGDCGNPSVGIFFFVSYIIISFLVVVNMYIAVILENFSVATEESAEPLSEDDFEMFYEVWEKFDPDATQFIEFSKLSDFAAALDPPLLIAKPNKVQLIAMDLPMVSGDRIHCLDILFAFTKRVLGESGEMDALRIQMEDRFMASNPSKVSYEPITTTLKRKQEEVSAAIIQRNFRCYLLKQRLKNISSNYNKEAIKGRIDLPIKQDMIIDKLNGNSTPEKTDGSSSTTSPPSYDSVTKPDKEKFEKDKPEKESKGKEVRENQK
Sequence of hNav1.7 (Q15858 whole entry, looked up): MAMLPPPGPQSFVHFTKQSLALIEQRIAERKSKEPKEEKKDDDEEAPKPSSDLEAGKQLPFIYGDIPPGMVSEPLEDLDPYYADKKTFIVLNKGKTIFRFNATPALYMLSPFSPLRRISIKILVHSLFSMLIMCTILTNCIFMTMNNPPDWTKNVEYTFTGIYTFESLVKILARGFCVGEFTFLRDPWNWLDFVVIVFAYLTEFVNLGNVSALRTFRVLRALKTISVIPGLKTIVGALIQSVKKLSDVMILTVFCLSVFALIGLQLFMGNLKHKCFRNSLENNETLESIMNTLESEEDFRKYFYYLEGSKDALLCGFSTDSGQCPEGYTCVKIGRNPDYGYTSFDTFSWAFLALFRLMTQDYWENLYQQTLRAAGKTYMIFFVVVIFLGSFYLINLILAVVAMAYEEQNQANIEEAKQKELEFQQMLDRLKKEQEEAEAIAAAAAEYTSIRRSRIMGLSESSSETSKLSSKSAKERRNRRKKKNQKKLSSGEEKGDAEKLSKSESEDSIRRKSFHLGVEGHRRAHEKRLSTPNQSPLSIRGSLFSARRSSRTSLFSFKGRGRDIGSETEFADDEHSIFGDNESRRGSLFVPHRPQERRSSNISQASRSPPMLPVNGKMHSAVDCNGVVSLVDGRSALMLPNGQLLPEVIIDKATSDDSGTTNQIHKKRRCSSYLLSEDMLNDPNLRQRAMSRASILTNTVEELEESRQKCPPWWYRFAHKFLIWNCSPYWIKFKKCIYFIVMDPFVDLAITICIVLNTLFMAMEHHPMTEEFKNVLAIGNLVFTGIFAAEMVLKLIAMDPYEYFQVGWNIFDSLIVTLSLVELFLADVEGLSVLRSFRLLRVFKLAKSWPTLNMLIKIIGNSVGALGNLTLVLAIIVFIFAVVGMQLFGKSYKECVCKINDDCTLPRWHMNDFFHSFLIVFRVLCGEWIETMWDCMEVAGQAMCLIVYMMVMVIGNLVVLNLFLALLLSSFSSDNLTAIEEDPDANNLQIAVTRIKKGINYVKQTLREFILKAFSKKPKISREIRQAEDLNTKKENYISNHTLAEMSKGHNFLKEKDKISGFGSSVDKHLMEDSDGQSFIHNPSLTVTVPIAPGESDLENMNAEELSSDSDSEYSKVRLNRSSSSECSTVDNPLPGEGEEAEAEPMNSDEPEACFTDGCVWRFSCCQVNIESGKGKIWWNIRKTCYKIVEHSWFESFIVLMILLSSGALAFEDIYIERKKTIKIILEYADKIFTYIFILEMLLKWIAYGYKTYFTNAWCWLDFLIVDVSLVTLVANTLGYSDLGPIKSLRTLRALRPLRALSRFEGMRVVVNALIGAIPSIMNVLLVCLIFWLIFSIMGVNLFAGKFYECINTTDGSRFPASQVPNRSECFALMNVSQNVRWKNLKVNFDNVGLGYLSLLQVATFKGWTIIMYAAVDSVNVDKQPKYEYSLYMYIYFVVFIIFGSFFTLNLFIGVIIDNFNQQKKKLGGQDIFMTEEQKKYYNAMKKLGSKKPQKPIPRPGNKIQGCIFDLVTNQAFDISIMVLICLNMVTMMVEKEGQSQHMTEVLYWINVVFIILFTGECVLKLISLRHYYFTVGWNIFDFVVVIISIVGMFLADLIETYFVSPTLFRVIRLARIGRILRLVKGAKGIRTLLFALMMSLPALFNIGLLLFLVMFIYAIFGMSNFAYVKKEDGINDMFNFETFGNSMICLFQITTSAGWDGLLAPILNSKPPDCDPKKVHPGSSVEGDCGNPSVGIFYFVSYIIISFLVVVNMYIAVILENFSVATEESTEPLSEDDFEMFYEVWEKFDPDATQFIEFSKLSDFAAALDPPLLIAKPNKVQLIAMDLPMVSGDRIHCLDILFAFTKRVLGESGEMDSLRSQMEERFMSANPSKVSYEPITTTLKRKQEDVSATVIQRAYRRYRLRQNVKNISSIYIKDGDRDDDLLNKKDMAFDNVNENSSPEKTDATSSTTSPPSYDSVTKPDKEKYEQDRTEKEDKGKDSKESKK

SMILES	pIC50 (hNav1.3)	pIC50 (hNav1.7)	pIC50 (hNav1.5)
CC[C@H](C)[C@@H]1NC(=O)[C@@H]2CSSC[C@@H]3NC(=O)[C@H](C(C)C)NC(=O)[C@H](CC(C)C)NC(=O)[C@H](CC(N)=O)NC(=O)[C@@H]4CCCN4C(=O)[C@H](CCCNC(=N)N)NC(=O)[C@H](CSSC[C@H](NC(=O)[C@@H](N)CC(=O)O)C(=O)N[C@@H](CC(C)C)C(=O)NCC(=O)N[C@@H](Cc4cccnc4)C(=O)N[C@@H](CCSC)C(=O)N[C@@H](CCCNC(=N)N)C(=O)N[C@@H](CCCCN)C(=O)N2)NC(=O)[C@H](CSSC[C@@H](C(=O)N[C@@H](CCCCN)C(=O)N[C@@H](Cc2ccc(O)cc2)C(=O)N[C@H](C(=O)N[C@@H](Cc2ccccc2)C(N)=O)C(C)C)NC(=O)[C@H](Cc2c[nH]c4ccccc24)NC(=O)[C@H](CCCCN)NC(=O)[C@H](Cc2c[nH]cn2)NC(=O)[C@H]([C@@H](C)O)NC(=O)[C@H](CCCNC(=N)N)NC(=O)[C@H](CO)NC3=O)NC(=O)[C@H](CCCCN)NC(=O)[C@H](CC(=O)O)NC(=O)[C@H](CC(N)=O)NC(=O)[C@H](CC(=O)O)NC(=O)[C@@H]2CCCN2C1=O [compound 596]	< 5.30	5.59	< 5.30
CC[C@H](C)[C@@H]1NC(=O)[C@@H]2CSSC[C@@H]3NC(=O)[C@H](C(C)C)NC(=O)[C@H](CC(C)C)NC(=O)[C@H](CC(N)=O)NC(=O)[C@@H]4CCCN4C(=O)[C@H](CCCNC(=N)N)NC(=O)[C@H](CSSC[C@H](NC(=O)[C@@H](N)CC(=O)O)C(=O)N[C@@H](CC(C)C)C(=O)NCC(=O)N[C@@H](C)C(=O)N[C@@H](Cc4ccccc4)C(=O)N[C@@H](CCCNC(=N)N)C(=O)N[C@@H](CCCCN)C(=O)N2)NC(=O)[C@H](CSSC[C@@H](C(=O)N[C@@H](CCCCN)C(=O)N[C@@H](Cc2ccc(O)cc2)C(=O)N[C@H](C(=O)N[C@@H](Cc2ccccc2)C(=O)O)C(C)C)NC(=O)[C@H](Cc2c[nH]c4ccccc24)NC(=O)[C@H](CCCNC(=N)N)NC(=O)[C@H](Cc2c[nH]cn2)NC(=O)[C@H]([C@@H](C)O)NC(=O)[C@H](CCCNC(=N)N)NC(=O)[C@H](CO)NC3=O)NC(=O)[C@H](CCCCN)NC(=O)[C@H](CC(=O)O)NC(=O)[C@H](Cc2ccc(O)cc2)NC(=O)[C@H](CC(=O)O)NC(=O)[C@@H]2CCCN2C1=O [compound 597] (H-DCLGAFRKCIPDYDKCCRPNLVCSRTHRWCKYVF-OH; disulfide 2-17, 9-23, 16-30)	5.96	< 5.30	5.13
CC[C@H](C)[C@@H]1NC(=O)[C@@H]2CSSC[C@@H]3NC(=O)[C@H](C(C)C)NC(=O)[C@H](CC(C)C)NC(=O)[C@H](CC(N)=O)NC(=O)[C@@H]4CCCN4C(=O)[C@H](CCCNC(=N)N)NC(=O)[C@H](CSSC[C@H](NC(=O)[C@@H](N)CC(=O)O)C(=O)N[C@@H](CC(C)C)C(=O)NCC(=O)N[C@@H](C)C(=O)N[C@@H](CC(C)C)C(=O)N[C@@H](CCCNC(=N)N)C(=O)N[C@@H](CCCCN)C(=O)N2)NC(=O)[C@H](CSSC[C@@H](C(=O)N[C@@H](CCCCN)C(=O)N[C@@H](Cc2ccc(O)cc2)C(=O)N[C@H](C(=O)N[C@@H](Cc2ccccc2)C(=O)O)C(C)C)NC(=O)[C@H](Cc2c[nH]c4ccccc24)NC(=O)CNC(=O)[C@H](Cc2c[nH]cn2)NC(=O)[C@H]([C@@H](C)O)NC(=O)[C@H](CCCNC(=N)N)NC(=O)[C@H](CO)NC3=O)NC(=O)[C@H](CCCCN)NC(=O)[C@H](CC(=O)O)NC(=O)[C@H](CC(N)=O)NC(=O)[C@H](CC(=O)O)NC(=O)[C@@H]2CCCN2C1=O [compound 598] (H-DCLGALRKCIPDNDKCCRPNLVCSRTHGWCKYVF-OH; disulfide 2-17, 9-23, 16-30)	5.40	< 5.30	4.90
CC[C@H](C)[C@@H]1NC(=O)[C@@H]2CSSC[C@@H]3NC(=O)[C@H](C(C)C)NC(=O)[C@H](CC(C)C)NC(=O)[C@H](CC(N)=O)NC(=O)[C@@H]4CCCN4C(=O)[C@H](CCCNC(=N)N)NC(=O)[C@H](CSSC[C@H](NC(=O)[C@@H](N)CC(=O)O)C(=O)N[C@@H](CC(C)C)C(=O)NCC(=O)N[C@@H](C)C(=O)N[C@@H](CC(C)C)C(=O)N[C@@H](CCCNC(=N)N)C(=O)N[C@@H](CCCCN)C(=O)N2)NC(=O)[C@H](CSSC[C@@H](C(=O)N[C@@H](CCCCN)C(=O)N[C@@H](Cc2ccc(O)cc2)C(=O)N[C@H](C(=O)N[C@@H](Cc2ccccc2)C(=O)O)C(C)C)NC(=O)[C@H](Cc2c[nH]c4ccccc24)NC(=O)[C@H](Cc2c[nH]cn2)NC(=O)[C@H](Cc2c[nH]cn2)NC(=O)[C@H]([C@@H](C)O)NC(=O)[C@H](CCCNC(=N)N)NC(=O)[C@H](CO)NC3=O)NC(=O)[C@H](CCCCN)NC(=O)[C@H](CC(=O)O)NC(=O)[C@H](CC(N)=O)NC(=O)[C@H](CC(=O)O)NC(=O)[C@@H]2CCCN2C1=O [compound 599] (H-DCLGALRKCIPDNDKCCRPNLVCSRTHHWCKYVF-OH; disulfide 2-17, 9-23, 16-30)	5.66	< 5.30	4.90
CC[C@H](C)[C@@H]1NC(=O)[C@@H]2CSSC[C@@H]3NC(=O)[C@H](C(C)C)NC(=O)[C@H](CC(C)C)NC(=O)[C@H](CC(N)=O)NC(=O)[C@@H]4CCCN4C(=O)[C@H](CCCNC(=N)N)NC(=O)[C@H](CSSC[C@H](NC(=O)[C@@H](N)CC(=O)O)C(=O)N[C@@H](CC(C)C)C(=O)NCC(=O)N[C@@H](C)C(=O)N[C@@H](CC(C)C)C(=O)N[C@@H](CCCNC(=N)N)C(=O)N[C@@H](CCCCN)C(=O)N2)NC(=O)[C@H](CSSC[C@@H](C(=O)N[C@@H](CCCCN)C(=O)N[C@@H](Cc2ccc(O)cc2)C(=O)N[C@H](C(=O)N[C@@H](Cc2ccccc2)C(=O)O)C(C)C)NC(=O)[C@H](Cc2c[nH]c4ccccc24)NC(=O)[C@H](CCCCN)NC(=O)[C@H](Cc2c[nH]cn2)NC(=O)[C@H]([C@@H](C)O)NC(=O)[C@H](CCCNC(=N)N)NC(=O)[C@H](CO)NC3=O)NC(=O)[C@H](CCCCN)NC(=O)[C@H](CC(=O)O)NC(=O)[C@H](CC(N)=O)NC(=O)[C@H](CC(=O)O)NC(=O)[C@@H]2CCCN2C1=O [compound 600] (H-DCLGALRKCIPDNDKCCRPNLVCSRTHKWCKYVF-OH; disulfide 2-17, 9-23, 16-30)	5.51	< 5.30	4.90
CC[C@H](C)[C@@H]1NC(=O)[C@@H]2CSSC[C@@H]3NC(=O)[C@H](C(C)C)NC(=O)[C@H](CC(C)C)NC(=O)[C@H](CC(N)=O)NC(=O)[C@@H]4CCCN4C(=O)[C@H](CCCNC(=N)N)NC(=O)[C@H](CSSC[C@H](NC(=O)[C@@H](N)CC(=O)O)C(=O)N[C@@H](CC(C)C)C(=O)NCC(=O)N[C@@H](C)C(=O)N[C@@H](CC(C)C)C(=O)N[C@@H](CCCNC(=N)N)C(=O)N[C@@H](CCCCN)C(=O)N2)NC(=O)[C@H](CSSC[C@@H](C(=O)N[C@@H](CCCCN)C(=O)N[C@@H](Cc2ccc(O)cc2)C(=O)N[C@H](C(=O)N[C@@H](Cc2ccccc2)C(=O)O)C(C)C)NC(=O)[C@H](Cc2c[nH]c4ccccc24)NC(=O)[C@H](CC(N)=O)NC(=O)[C@H](Cc2c[nH]cn2)NC(=O)[C@H]([C@@H](C)O)NC(=O)[C@H](CCCNC(=N)N)NC(=O)[C@H](CO)NC3=O)NC(=O)[C@H](CCCCN)NC(=O)[C@H](CC(=O)O)NC(=O)[C@H](CC(N)=O)NC(=O)[C@H](CC(=O)O)NC(=O)[C@@H]2CCCN2C1=O [compound 601] (H-DCLGALRKCIPDNDKCCRPNLVCSRTHNWCKYVF-OH; disulfide 2-17, 9-23, 16-30)	5.59	< 5.30	5.00
CC[C@H](C)[C@@H]1NC(=O)[C@@H]2CSSC[C@@H]3NC(=O)[C@H](C(C)C)NC(=O)[C@H](CC(C)C)NC(=O)[C@H](CC(N)=O)NC(=O)[C@@H]4CCCN4C(=O)[C@H](CCCNC(=N)N)NC(=O)[C@H](CSSC[C@H](NC(=O)[C@@H](N)CC(=O)O)C(=O)N[C@@H](CC(C)C)C(=O)NCC(=O)NCCC(=O)N[C@@H](Cc4ccccc4)C(=O)N[C@@H](CCCNC(=N)N)C(=O)N[C@@H](CCCCN)C(=O)N2)NC(=O)[C@H](CSSC[C@@H](C(=O)N[C@@H](CCCCN)C(=O)N[C@@H](Cc2ccc(O)cc2)C(=O)N[C@H](C(=O)N[C@@H](Cc2ccccc2)C(N)=O)C(C)C)NC(=O)[C@H](Cc2c[nH]c4ccccc24)NC(=O)[C@H](CCCCN)NC(=O)[C@H](Cc2c[nH]cn2)NC(=O)[C@H]([C@@H](C)O)NC(=O)[C@H](CCCNC(=N)N)NC(=O)[C@H](CO)NC3=O)NC(=O)[C@H](CCCCN)NC(=O)[C@H](CC(=O)O)NC(=O)[C@H](CC(N)=O)NC(=O)[C@H](CC(=O)O)NC(=O)[C@@H]2CCCN2C1=O [compound 603] (H-DCLG[βAla]FRKCIPDNDKCCRPNLVCSRTHKWCKYVF-NH2; disulfide 2-17, 9-23, 16-30)	4.93	4.82	5.02
CC[C@H](C)[C@@H]1NC(=O)[C@@H]2CSSC[C@@H]3NC(=O)[C@H](C(C)C)NC(=O)[C@H](CC(C)C)NC(=O)[C@H](CC(N)=O)NC(=O)[C@@H]4CCCN4C(=O)[C@H](CCCNC(=N)N)NC(=O)[C@H](CSSC[C@H](NC(=O)[C@@H](N)CC(=O)O)C(=O)N[C@@H](CC(C)C)C(=O)NCC(=O)NC(C)(C)C(=O)N[C@@H](Cc4ccccc4)C(=O)N[C@@H](CCCNC(=N)N)C(=O)N[C@@H](CCCCN)C(=O)N2)NC(=O)[C@H](CSSC[C@@H](C(=O)N[C@@H](CCCCN)C(=O)N[C@@H](Cc2ccc(O)cc2)C(=O)N[C@H](C(=O)N[C@@H](Cc2ccccc2)C(N)=O)C(C)C)NC(=O)[C@H](Cc2c[nH]c4ccccc24)NC(=O)[C@H](CCCCN)NC(=O)[C@H](Cc2c[nH]cn2)NC(=O)[C@H]([C@@H](C)O)NC(=O)[C@H](CCCNC(=N)N)NC(=O)[C@H](CO)NC3=O)NC(=O)[C@H](CCCCN)NC(=O)[C@H](CC(=O)O)NC(=O)[C@H](CC(N)=O)NC(=O)[C@H](CC(=O)O)NC(=O)[C@@H]2CCCN2C1=O [compound 604] (H-DCLG[Aib]FRKCIPDNDKCCRPNLVCSRTHKWCKYVF-NH2; disulfide 2-17, 9-23, 16-30)	6.21	6.36	5.19
